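Dose response: 5 concentrations. Exposure: 48 h. Format: 96-well plates. Endpoint: linear interpolation; highest concentration if not reached. GI50: concentration for 50% inhibition of growth.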 The source made the active and inactive calls. Rule as the data show it: active = GI50 up to about 1.1 µM and inactive = higher.
Experiments:
Test in all cases: inhibition of tumour cell growth, NCI panel, 48 h
[1] = test system: TK-10
[2] = test system: HT-29
[3] = test system: IGROV-1
[4] = test system: SW-620
[5] = test system: SNB-78
[6] = test system: CCRF-CEM
[7] = test system: KM12
[8] = test system: ACHN
[9] = test system: NCI-H226
[10] = test system: A549
[11] = test system: NCI-H522
[12] = test system: KM-20L2
[13] = test system: K562
[14] = test system: M19-MEL
[15] = test system: NCI-H460
[16] = test system: NCI-H23
[17] = test system: CAKI-1
[18] = test system: 786-0
[19] = test system: HL-60
[20] = test system: RXF 631
[21] = test system: SNB-75
[22] = test system: M14
[23] = test system: OVCAR-8
[24] = test system: UO-31
[25] = test system: OVCAR-3
[26] = test system: HOP-18
[27] = test system: OVCAR-4
[28] = test system: SK-MEL-5
[29] = test system: COLO 205
[30] = test system: UACC-62
[31] = test system: SF-268
[32] = test system: Malme-3M
[33] = test system: SNB-19
[34] = test system: HCT-15
[35] = test system: DLD-1
[36] = test system: RPMI-8226
[37] = test system: A498
[38] = test system: HOP-92
[39] = test system: HCC 2998
[40] = test system: SF-295
[41] = test system: OVCAR-5
[42] = test system: SK-MEL-2
[43] = test system: UACC-257
[44] = test system: EKVX
[45] = test system: HCT-116
[46] = test system: SK-MEL-28
[47] = test system: DMS-273
[48] = test system: U-251
[49] = test system: SN12C
[50] = test system: SK-OV-3
[51] = test system: XF498
[52] = test system: HOP-62
[53] = test system: MOLT-4
[54] = test system: LXFL 529
[55] = test system: SR
[56] = test system: SF-539
[57] = test system: LOX IMVI
[58] = test system: RXF 393
[59] = test system: DMS-114

Structure (SMILES): Cc1cccc(-c2nnc(S)[nH]2)c1
- GI50 [1]: > 100 µM (inactive)
- GI50 [2]: > 100 µM (inactive)
- GI50 [3]: > 100 µM (inactive)
- GI50 [4]: > 100 µM (inactive)
- GI50 [5]: > 100 µM (inactive)
- GI50 [6]: > 100 µM (inactive)
- GI50 [7]: > 100 µM (inactive)
- GI50 [8]: > 100 µM (inactive)
- GI50 [9]: > 100 µM (inactive)
- GI50 [10]: > 100 µM (inactive)
- GI50 [11]: > 100 µM (inactive)
- GI50 [12]: > 100 µM (inactive)
- GI50 [13]: > 100 µM (inactive)
- GI50 [14]: > 100 µM (inactive)
- GI50 [15]: > 100 µM (inactive)
- GI50 [16]: > 100 µM (inactive)
- GI50 [17]: > 100 µM (inactive)
- GI50 [18]: > 100 µM (inactive)
- GI50 [19]: > 100 µM (inactive)
- GI50 [20]: > 100 µM (inactive)
- GI50 [21]: > 100 µM (inactive)
- GI50 [22]: > 100 µM (inactive)
- GI50 [23]: > 100 µM (inactive)
- GI50 [24]: > 100 µM (inactive)
- GI50 [25]: > 100 µM (inactive)
- GI50 [26]: > 100 µM (inactive)
- GI50 [27]: > 100 µM (inactive)
- GI50 [28]: > 100 µM (inactive)
- GI50 [29]: > 100 µM (inactive)
- GI50 [30]: > 100 µM (inactive)
- GI50 [31]: > 100 µM (inactive)
- GI50 [32]: > 100 µM (inactive)
- GI50 [33]: > 100 µM (inactive)
- GI50 [34]: > 100 µM
- GI50 [35]: > 100 µM (inactive)
- GI50 [36]: > 100 µM (inactive)
- GI50 [37]: > 100 µM (inactive)
- GI50 [38]: > 100 µM (inactive)
- GI50 [39]: > 100 µM (inactive)
- GI50 [40]: > 100 µM (inactive)
- GI50 [41]: > 100 µM (inactive)
- GI50 [42]: > 100 µM (inactive)
- GI50 [43]: > 100 µM (inactive)
- GI50 [44]: > 100 µM (inactive)
- GI50 [45]: > 100 µM (inactive)
- GI50 [46]: > 100 µM (inactive)
- GI50 [47]: > 100 µM (inactive)
- GI50 [48]: > 100 µM (inactive)
- GI50 [49]: > 100 µM (inactive)
- GI50 [50]: > 100 µM (inactive)
- GI50 [51]: > 100 µM (inactive)
- GI50 [52]: > 100 µM (inactive)
- GI50 [53]: 89.5 µM (inactive)
- GI50 [54]: > 100 µM (inactive)
- GI50 [55]: > 100 µM (inactive)
- GI50 [56]: > 100 µM (inactive)

Structure (SMILES): Cc1ccccc1C(C#N)/C(=N/NC(N)=S)C(=O)Nc1c(C)cccc1C (stereo unspecified)
- GI50 [1]: > 100 µM (inactive)
- GI50 [2]: > 100 µM (inactive)
- GI50 [3]: > 100 µM (inactive)
- GI50 [57]: > 100 µM (inactive)
- GI50 [4]: > 100 µM (inactive)
- GI50 [5]: > 100 µM (inactive)
- GI50 [6]: > 100 µM (inactive)
- GI50 [7]: > 100 µM (inactive)
- GI50 [8]: > 100 µM (inactive)
- GI50 [58]: > 100 µM (inactive)
- GI50 [9]: > 100 µM (inactive)
- GI50 [10]: 75.9 µM (inactive)
- GI50 [12]: > 100 µM (inactive)
- GI50 [14]: 80 µM (inactive)
- GI50 [15]: > 100 µM (inactive)
- GI50 [16]: > 100 µM (inactive)
- GI50 [18]: > 100 µM (inactive)
- GI50 [19]: > 100 µM (inactive)
- GI50 [20]: > 100 µM (inactive)
- GI50 [21]: > 100 µM (inactive)
- GI50 [22]: > 100 µM (inactive)
- GI50 [59]: 10.4 µM (inactive)
- GI50 [23]: > 100 µM (inactive)
- GI50 [24]: > 100 µM (inactive)
- GI50 [25]: > 100 µM (inactive)
- GI50 [26]: > 100 µM (inactive)
- GI50 [27]: > 100 µM (inactive)
- GI50 [28]: 46.3 µM (inactive)
- GI50 [29]: > 100 µM (inactive)
- GI50 [30]: 33.4 µM (inactive)
- GI50 [31]: > 100 µM (inactive)
- GI50 [32]: 83.8 µM (inactive)
- GI50 [33]: > 100 µM (inactive)
- GI50 [35]: > 100 µM (inactive)
- GI50 [36]: 9.12 µM (inactive)
- GI50 [38]: > 100 µM (inactive)
- GI50 [39]: > 100 µM (inactive)
- GI50 [40]: > 100 µM (inactive)
- GI50 [41]: > 100 µM (inactive)
- GI50 [42]: > 100 µM (inactive)
- GI50 [43]: > 100 µM (inactive)
- GI50 [44]: > 100 µM (inactive)
- GI50 [45]: > 100 µM (inactive)
- GI50 [46]: > 100 µM (inactive)
- GI50 [48]: > 100 µM (inactive)
- GI50 [49]: > 100 µM (inactive)
- GI50 [51]: 32.8 µM (inactive)
- GI50 [52]: > 100 µM (inactive)
- GI50 [53]: 88.1 µM (inactive)
- GI50 [54]: > 100 µM (inactive)

Source: ChEMBL document CHEMBL1201862, “PubChem BioAssay data set” (2004)
